Patent US20120309796A1, “BENZOCYCLOHEPTENE ACETIC ACIDS” (priority 2011, published 2012)

Tests used:
human CRTH2 [1] = molecular target: T1, human CRTH2 (Homo sapiens, UniProt Q9Y5Y4); test: Calcium Flux Assay Using Fluorometric Imaging Plate Reader (FLIPR); format: cell-based; set-up: expressed in transfected cells; host or cells: CHO-K1 previously transfected with G-alpha 16; details: CHO-K1 cells with G-alpha 16 and human CRTH2; inhibition of DK-PGD2 ligand-induced Ca2+ flux
T1 sequence (Q9Y5Y4 1-395): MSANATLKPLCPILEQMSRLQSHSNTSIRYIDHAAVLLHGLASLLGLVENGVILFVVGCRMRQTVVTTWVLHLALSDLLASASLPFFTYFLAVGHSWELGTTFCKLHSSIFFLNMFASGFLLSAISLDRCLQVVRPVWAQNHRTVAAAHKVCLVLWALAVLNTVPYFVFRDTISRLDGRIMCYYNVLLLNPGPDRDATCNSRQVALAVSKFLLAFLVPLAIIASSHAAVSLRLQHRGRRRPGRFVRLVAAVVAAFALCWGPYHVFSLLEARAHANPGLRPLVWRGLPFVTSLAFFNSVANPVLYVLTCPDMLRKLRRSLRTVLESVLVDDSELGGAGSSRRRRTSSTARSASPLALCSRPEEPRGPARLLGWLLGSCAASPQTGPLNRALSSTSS
Description: CHO-K1 cells previously transfected with G-alpha 16 were subsequently transfected with the human CRTH2 receptor and the neomycin resistance gene. Following selection in 800 μg/mL G418 (geneticin), individual clones were assayed for their receptor expression based on staining with an anti human CRTH2 IgG, followed by assaying for their response to 13,14-dihydro-15-keto Prostaglandin D2 (DK-PDG2) (ligand) in the Ca^2+ Flux assay. Positive clones were then cloned by limiting dilution cloning. The transfected cells were cultured in Ham's F-12 medium supplemented with 10% fetal bovine serum, 2 mM glutamine, 100 U/mL penicillin/100 μg/mL streptomycin, 200 μg/mL hygromycin B, and 800 μg/mL G418 (geneticin). Cells were harvested with trypsin-EDTA (trypsin-ethylenediaminetetraacetic acid) and counted using ViaCount® reagent (from Guava Technologies, Inc. which contains two DNA-binding dyes that enable the reagent user to distinguish between viable and non-viable cells). The cell suspension volume was adjusted to 2.5×10^5 cells/mL with complete growth media. Aliquots of 50 μL were dispensed into BD Falcon™ 384 well black/clear microplates (from BD Biosciences, a division of Becton, Dickinson and Company) and the microplates were placed in a 37° C. CO2 incubator overnight. The following day, the microplates were used in the assay.
Loading Buffer containing dye (from the FLIPR® Calcium 3 Assay Kit from Molecular Devices, a division of MDS Analytical Technologies and MDS Inc.) was prepared by dissolving the contents of one bottle into 200 mL Hank's Balanced Salt Solution containing 20 mM HEPES (4-(2-hydroxyethyl)-1-piperazineethanesulfonic acid) and 2.5 mM probenecid. Growth media was removed from the cell plates and 25 μL of Hank's Balanced Salt Solution (HBSS) containing 20 mM HEPES, 0.05% BSA and 2.5 mM probenecid was added to each well followed by 25 μL of diluted dye using a Multidrop dispenser. The plates were then incubated for 1 hour at 37° C.
During the incubation, test compound plates were prepared by adding 90 μL of HBSS/20 mM HEPES/0.005% BSA buffer to the 2 μL of serial diluted compounds. To prepare serial diluted compounds, 20 mM stocks of compounds were dissolved in 100% DMSO. The compound dilution plate was set up as follows: well #1 received 5 μL of compound plus 10 μL of DMSO. Wells 2-10 received 10 μL of DMSO. 5 μL was mixed and transferred from well #1 into well #2. 1:3 serial dilutions were continued out 10 steps. 2 μl of diluted compound was transferred into duplicate wells of a 384 well “assay plate” and then 90 μL of buffer was added.
After incubation, both the cell and “assay plate” plates were brought to the fluorometric imaging plate reader (FLIPR®) and 20 μL of the diluted compounds were transferred to the cell plates by the FLIPR®. Plates were then incubated for 1 hour at room temperature. After the 1 hour incubation, plates were returned to the FLIPR® and 20 μL of 4.5× concentrated ligand was added to the cell plates. During the assay, fluorescence readings were taken simultaneously from all 384 wells of the cell plate every 1.5 seconds. Five readings were taken to establish a stable baseline, then 20 μL of sample was rapidly (30 μL/sec) and simultaneously added to each well of the cell plate. The fluorescence was continuously monitored before, during and after sample addition for a total elapsed time of 100 seconds. Responses (increase in peak fluorescence) in each well following agonist addition were determined. The initial fluorescence reading from each well, prior to ligand stimulation, was used as a zero baseline value for the data from that well. The responses were expressed as % inhibition of the buffer control. […]

human CRTH2 [2] = molecular target: T1, human CRTH2; test: Human CRTH2 Receptor Binding Assay (whole cell, [3H]ramatroban competition); set-up: two mammalian expression vectors that harbored human CRTH2 and G-alpha16 cDNAs; expressed in transfected cells; details: CHO-K1 cells expressing human CRTH2 and G-alpha16; 20 nM [3H]ramatroban; 1 hour, room temperature
In short: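 CHO-K1 cells stably co-expressing human CRTH2 and G-alpha16 (1.5×10^5/reaction) incubated 1 h at room temperature with 20 nM [3H]ramatroban in PBS, 10 mM MgCl2, 0.06% BSA. Non-specific binding defined with 10 μM 15(R)-15-methyl PGD2; IC50 from 7-point inhibition of specific binding, 4-parameter logistic fit.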

Q: Which IC50 (human CRTH2 [1]) does the source give for `Cc1cncc(-c2ccc(S(=O)(=O)NC3CCCCc4c(OCC(=O)O)cccc43)cc2)c1` (centres unmarked) [Example 25, {5-[4-(5-Methyl-pyridin-3-yl)-benzenesulfonylamino]-6,7,8,9-tetrahydro-5H-benzocyclohepten-1-yloxy}-acetic acid] here?
A: 123 nM

Q: And the IC50 (human CRTH2 [2])?
A: 33.7 nM
